Results as given in patent US6960429B2, “Inhibition of viral gene activities” (priority 1997, dated 2005).
Read-outs that look alike come from different tables or passages of the source.

Legend:
[1] = target: T1, NΔ360 (derivative of EBNA1) (Epstein-Barr virus, UniProt P03211); assay type: biochemical; settings: for Ki: 6.5 nM dimers of NΔ360, 20 fmols DNA with two EBNA1-binding sites, Ki = concentration of competitor which inhibits linking to 50%, read-out: Ki against NΔ360
T1 construct: NΔ360 and NΔ389 have a methionine followed by amino acids 361 and 390 to the carboxy-terminus, respectively; added initiator methionine (N); made in house; host or cells: E. coli
Text: (§1) Two DNAs used as probes in this study were generated by endonuclease digestion of cloned DNAs. That with two EBNA1-binding sites is the 131 bp, SalI to PstI fragment derived from p880 (30); and that with five GAL4-binding sites is the 109 bp, HinDIII to XbaI fragment derived from G5BCAT (31). DNA fragments were purified from agarose gels. […] This method distinguishes less than two-fold differences in DNA concentrations. These DNAs were labeled with the Klenow fragment of DNA Polymerase 1 in the presence of dATP, dGTP, dTTP, and ^32P α-dCTP (Amersham), and precipitated three times to remove unincorporated label (32).
(§2) The derivatives of EBNA1 (bEBNA1, NΔ360, NΔ389) and the GAL4 derivatives (GAL4(1-94), GAL4(1-94)&54-89, GAL4(1-94)&331-361, GAL4(1-94)&372-391) used in this study were all produced and purified as previously described (28). Briefly, bEBNA1 lacks amino acids 2 through 7 and all but fifteen amino acids of the gly-gly-ala repeats and was expressed in SF21 cells (23). NΔ360 and NΔ389 lack the first 360 and 389 amino acids, respectively, and were expressed in E. coli. GAL4(1-94) contains amino acids 1 to 94 of the yeast transactivator GAL4 plus eight carboxy-terminal amino acids coded by the poly-cloning region. The fusions designated GAL4(1-94)&#—# contain the indicated residues from EBNA1 cloned in frame into the poly-cloning region. All derivatives and fragments of EBNA1 were derived from the B95-8 viral strain (33, 15).
(§3) A.A. 40-89 and A.A. 331-391 were generated by amplifying the fragment of EBNA1 encoding those amino acids with PCR primers containing SalI and XbaI sites at the 5′ ends. […] The sequence of both clones was verified using an ABI Prism automated sequencer (Applied BioSystems). Expression of the fusion proteins in BL21 bacteria containing a DE3 lysogen and carrying pLysS was done as previously described (28). Purification using Ni^2+-NTA agarose (Qiagen) followed standard protocols (The QIAexpressionist, Qiagen). Following elution of A.A. 40-89 and A.A. 331-391 in 500 and 150 mM imidazole, respectively, the peptides were dialyzed into a buffer containing 50 mM Tris (pH 7.5), 2.5 mM EDTA, and 0.3 M NaCl.
(§4) Gel shift assays were done as previously described (28). All reactions contained 20 mM N-2-hydroxyethylpiperazine-N′-2-ethanesulfonic acid (HEPES; pH 7.6), 2 mM EDTA, 10% glycerol, 0.1% Nonidet P-40, and 0.3 M NaCl. Proteins were mixed in volume of 15 μl. The labeled DNA and 3 μg of poly(dI)•poly(dC) (Pharmacia) in 8 μl were added with mixing. The reactions were then incubated 30-45 minutes at room temperature. Reactions were separated by electrophoresis at 15-25 mA through a 4% polyacrylamide gel in 0.5×TBE (45 mM Tris-borate and 1 mM EDTA). Gels were dried on 3MM chromatography paper (Whatman) at 80° C. for 1 hour and then exposed to phosphorimager screens. The percentage of DNA linked is determined by dividing the amount of linked DNA by the total amount of DNA in the lane.
(§5) FIG. 3A: 20 fmols of a DNA with two EBNA1-binding sites were combined with the indicated concentrations of dimers of NΔ360 and A.A. 331-391 prior to separation by electrophoresis through a 4% polyacrylamide gel. […] The positions of linked DNA, unbound DNA, and DNA with one and two sites occupied by NΔ360 (1 and 2, respectively) are indicated. […] The percentage bound is the fraction of the total DNA in the lane which is shifted above the bracket for unbound DNA. […] The standard deviations are from three separate experiments.

[2] = test system: DNA with two EBNA1-binding sites; test: Gel shift assay: binding of the peptides to DNA in the absence of NΔ360; settings: for Concentration reducing linking to 50% as percentage of concentration required to bind 50% of the DNA: 6.5 nM dimers of NΔ360, DNA binding in absence of NΔ360; for Difference between Ki and concentration which bound 50% of the DNA: linking by NΔ360 vs DNA binding by peptide alone
Text: as §1, §4, §5

[3] = target: bEBNA1 (derivative of EBNA1); assay type: biochemical, Epstein-Barr virus; settings: for Ki: 6.5 nM dimers of bEBNA1, 20 fmols DNA with two EBNA1-binding sites, Ki = concentration of competitor which inhibits linking to 50%, read-out: Ki against bEBNA1; for Ki for linking by bEBNA1 relative to linking by NΔ360: DNA with two EBNA1-binding sites; for Effectiveness of competition with linking by bEBNA1 relative to linking by NΔ360: DNA with two binding sites
Method: (§6) Two DNAs used as probes in this study were generated by endonuclease digestion of cloned DNAs. That with two EBNA1-binding sites is the 131 bp, SalI to PstI fragment derived from p880 (30); and that with five GAL4-binding sites is the 109 bp, HinDIII to XbaI fragment derived from G5BCAT (31). DNA fragments were purified from agarose gels. They were quantified by making serial dilutions in the presence of ethidium bromide (0.5 μg/mL) and comparing their intensities, when exposed to ultraviolet light, to that of similar dilutions of a standard DNA. This method distinguishes less than two-fold differences in DNA concentrations. These DNAs were labeled with the Klenow fragment of DNA Polymerase 1 in the presence of dATP, dGTP, dTTP, and ^32P α-dCTP (Amersham), and precipitated three times to remove unincorporated label (32).
as §2, §3, §4

[4] = target: T2, GAL4(1-94)&54-89 (Epstein-Barr virus, UniProt P03211); test: Gel shift assay: inhibition of DNA-linking by GAL4(1-94)&54-89; assay type: biochemical; settings: 2.5-fold molar excess of competitor; DNA with five GAL4-binding sites (FIG. 2A)
T2 construct: made in house
Method: as §6, with “(32). […]” for “(32).”
Gel shift assays were done as previously described (28). […] The percentage of DNA linked is determined by dividing the amount of linked DNA by the total amount of DNA in the lane.
The ability of GAL4(1-94)&54-89 (FIG. 1) to link DNAs containing five GAL4-binding sites was tested in the absence of any competitor and in the presence of a 2.5-fold molar excess of three derivatives of EBNA1 (FIG. 1). […] For both FIGS. 2A and B the reactions were manipulated and analyzed to determine the percentage of maximum DNA linked as in FIG. 3. […]

[5] = DNA with two EBNA1-binding sites, read-out: Concentration for 50% inhibition of linking by NΔ360
[6] = linking by NΔ360, DNA with two binding sites

Row | Substance | Ki [1] [nM] | IC50 [1, 5] [nM] | Concentration reducing linking to 50% as percentage of concentration required to bind 50% of the DNA [2] [%] | Difference between Ki and concentration which bound 50% of the DNA [2] [fold] | Ki [3] [nM] | Ki for linking by bEBNA1 relative to linking by NΔ360 [3] [fold] | Effectiveness of competition with linking by bEBNA1 relative to linking by NΔ360 [3] | other results
1 | A.A. 40-89: EBNA1 amino acids 40-89 fused to an amino-terminal epitope (T7 Tag) and 6 carboxy-terminal histidines, expressed in bacteria | 55 | 55 | 1 | 100 | 7600 | 140 | approximately 1% | 
2 | A.A. 331-391: EBNA1 amino acids 331-391 fused to an amino-terminal epitope (T7 Tag) and 6 carboxy-terminal histidines, expressed in bacteria | 30 | 30 | 2 | 50 | 3300 | 110 | approximately 1% | Excess of competitor relative to NΔ360 that halves the percentage of DNA linked ([1]; DNA with two EBNA1-binding sites): 5 fold; Effectiveness of competition for linking of the ten binding site DNA relative to the two binding site DNA ([1]; linking by NΔ360, data not shown): approximately 0.3%
3 | GAL4(1-94): Amino acids 1 to 94 of the yeast transactivator GAL4 plus eight carboxy-terminal amino acids coded by the poly-cloning region [reference compound] |  |  |  |  |  |  |  | Inhibition of linking by NΔ360 ([1]; 4.5-fold molar excess of GAL4-derivative, DNA with two EBNA1-binding sites (FIG. 2B)): did not inhibit linking
4 | NΔ360: EBNA1 derivative lacking the first 360 amino acids, expressed in E. coli |  |  |  |  |  |  |  | Inhibition of linking by GAL4(1-94)&54-89 [4]: inhibited linking
5 | Poly-Lysine [reference compound] | 1900 |  |  |  | 11000 | 6 |  | IC50 ([1]; DNAs with two EBNA1-binding sites, read-out: Concentration inhibiting linking by NΔ360 to 50%): 1900 nM; Ki of polyK relative to Ki of A.A. 40-89 [1, 6]: 35 fold; Ki of polyK relative to Ki of A.A. 331-391 [1, 6]: 60 fold
